Source: patent US9211310B2, “Use of a Chinese medicine composition in preparing medicaments for treating secondary prevention of myocardial infarction” (TASLY PHARMACEUTICAL GROUP CO., LTD, priority 2010, dated 2015)

System: patients after acute myocardial infarction
Test: Life quality, Seattle Angina Questionnaire (SAQ), same clinical trial
Assay type: in vivo, human
Text: 3508 patients who were in accordance with the diagnostic standards of AMI for 28 days to 2 years and differentiated as Qi deficiency and blood stagnation syndrome by TCM were studied. 0.5 g Chinese medicine composition prepared by the method of EXAMPLE 1 (Coded as QSYQ) was administrated half an hour after meal, 3 times per day.
There were 19 questions in the Seattle angina questionnaire (SAQ), including 5 parts: physical limitation (PL), anginal stability (AS), anginal frequency (AF), treatment satisfaction (TS) and disease perception (DP). After being given necessary explanation by doctors, the questions were answered independently by patients.
They included the overall survival time, angina pectoris score, TCM symptom score and life quality score, where angina pectoris score, TCM symptom score and life quality score were evaluated at randomization, in 1st, 3rd, 6th, 9th, 12th month after treatment and 18th month after follow-up.
All evaluation results of SAQ were described during the period of observation, and Wilcoxon rank sum test was used for inter-group comparison.
The evaluation results in the SAQ were depicted in different observations, and inter-group comparison was tested by Wilcoxon Rank-sum test.

Compound: CC(=O)Oc1ccccc1C(=O)O [Control group, aspirine]
- SAQ 3rd question: ≧4 times per day, cases (3 months after treatment, PP): 6
- SAQ Question 1-3: Mildly limited, number of patients (3 months after treatment, PP): 81
- SAQ Question 1-3: Mildly limited, percent of patients (3 months after treatment, PP): (5.51%)
- SAQ Question 1-3: Moderately limited, number of patients (3 months after treatment, PP): 16
- SAQ Question 1-3: Moderately limited, percent of patients (3 months after treatment, PP): (1.09%)
- SAQ Question 1-3: Not limited, number of patients (3 months after treatment, PP): 1103
- SAQ Question 1-3: Not limited, percent of patients (3 months after treatment, PP): (75.03%)
- SAQ Question 1-3: Other reason, number of patients (3 months after treatment, PP): 8
- SAQ Question 1-3: Other reason, percent of patients (3 months after treatment, PP): (0.54%)
- SAQ Question 1-3: Severely limited, number of patients (3 months after treatment, PP): 5
- SAQ Question 1-3: Severely limited, percent of patients (3 months after treatment, PP): (0.34%)
- SAQ Question 1-3: Slightly limited, number of patients (3 months after treatment, PP): 257
- SAQ Question 1-3: Slightly limited, percent of patients (3 months after treatment, PP): (17.48%)
- SAQ Question 1-4: Mildly limited, number of patients (3 months after treatment, PP): 278
- SAQ Question 1-4: Mildly limited, percent of patients (3 months after treatment, PP): (18.95%)
- SAQ Question 1-4: Moderately limited, number of patients (3 months after treatment, PP): 105
- SAQ Question 1-4: Moderately limited, percent of patients (3 months after treatment, PP): (7.16%)
- SAQ Question 1-4: Not limited, number of patients (3 months after treatment, PP): 559
- SAQ Question 1-4: Not limited, percent of patients (3 months after treatment, PP): (38.10%)
- SAQ Question 1-4: Other limited, number of patients (3 months after treatment, PP): 11
- SAQ Question 1-4: Other limited, percent of patients (3 months after treatment, PP): (0.75%)
- SAQ Question 1-4: Severely limited, number of patients (3 months after treatment, PP): 22
- SAQ Question 1-4: Severely limited, percent of patients (3 months after treatment, PP): (1.50%)
- SAQ Question 1-4: Slightly limited, number of patients (3 months after treatment, PP): 492
- SAQ Question 1-4: Slightly limited, percent of patients (3 months after treatment, PP): (33.54%)
- SAQ Question 1-5: Mildly limited, number of patients (3 months after treatment, PP): 268
- SAQ Question 1-5: Mildly limited, percent of patients (3 months after treatment, PP): (18.27%)
- SAQ Question 1-5: Moderately limited, number of patients (3 months after treatment, PP): 137
- SAQ Question 1-5: Moderately limited, percent of patients (3 months after treatment, PP): (9.34%)
- SAQ Question 1-5: Not limited, number of patients (3 months after treatment, PP): 594
- SAQ Question 1-5: Not limited, percent of patients (3 months after treatment, PP): (40.49%)
- SAQ Question 1-5: Other reasons, number of patients (3 months after treatment, PP): 11
- SAQ Question 1-5: Other reasons, percent of patients (3 months after treatment, PP): (0.75%)
- SAQ Question 1-5: Severely limited, number of patients (3 months after treatment, PP): 16
- SAQ Question 1-5: Severely limited, percent of patients (3 months after treatment, PP): (1.09%)
- SAQ Question 1-5: Slightly limited, number of patients (3 months after treatment, PP): 441
- SAQ Question 1-5: Slightly limited, percent of patients (3 months after treatment, PP): (30.06%)
- SAQ Question 1-9: Mildly limited, % of cases (3 months after treatment, PP): (18.45%)
- SAQ Question 1-9: Mildly limited, cases (3 months after treatment, PP): 264
- SAQ Question 1-9: Moderately limited, % of cases (3 months after treatment, PP): (20.48%)
- SAQ Question 1-9: Moderately limited, cases (3 months after treatment, PP): 293
- SAQ Question 1-9: Not limited, % of cases (3 months after treatment, PP): (3.70%)
- SAQ Question 1-9: Not limited, cases (3 months after treatment, PP): 53
- SAQ Question 1-9: Other reaons, % of cases (3 months after treatment, PP): (6.08%)
- SAQ Question 1-9: Other reaons, cases (3 months after treatment, PP): 87
- SAQ Question 1-9: Severely limited, % of cases (3 months after treatment, PP): (39.41%)
- SAQ Question 1-9: Severely limited, cases (3 months after treatment, PP): 564
- SAQ Question 1-9: Slightly limited, % of cases (3 months after treatment, PP): (11.88%)
- SAQ Question 1-9: Slightly limited, cases (3 months after treatment, PP): 170
- SAQ 2nd question: 6, % of cases (6 months after treatment, FAS): (0.00%)
- SAQ 2nd question: 6, cases (6 months after treatment, FAS): 0
- SAQ 2nd question: Clearly increased, % of cases (6 months after treatment, FAS): (0.98%)
- SAQ 2nd question: Clearly increased, cases (6 months after treatment, FAS): 17
- SAQ 2nd question: Clearly reduced, % of cases (6 months after treatment, FAS): (22.98%)
- SAQ 2nd question: Clearly reduced, cases (6 months after treatment, FAS): 400
- SAQ 2nd question: Same, % of cases (6 months after treatment, FAS): (37.33%)
- SAQ 2nd question: Same, cases (6 months after treatment, FAS): 650
- SAQ 2nd question: Slightly increased, % of cases (6 months after treatment, FAS): (3.68%)
- SAQ 2nd question: Slightly increased, cases (6 months after treatment, FAS): 64
- SAQ 2nd question: Slightly reduced, % of cases (6 months after treatment, FAS): (35.04%)
- SAQ 2nd question: Slightly reduced, cases (6 months after treatment, FAS): 610
- SAQ 3rd question: 1-2 times per week, % of cases (6 months after treatment, FAS): (35.04%)
- SAQ 3rd question: 1-2 times per week, cases (6 months after treatment, FAS): 610
- SAQ 3rd question: 1-3 times per day, % of cases (6 months after treatment, FAS): (3.68%)
- SAQ 3rd question: 1-3 times per day, cases (6 months after treatment, FAS): 64
- SAQ 3rd question: <1 time per week, % of cases (6 months after treatment, FAS): (22.98%)
- SAQ 3rd question: <1 time per week, cases (6 months after treatment, FAS): 400
- SAQ 3rd question: No onset, % of cases (6 months after treatment, FAS): (0.00%)
- SAQ 3rd question: No onset, cases (6 months after treatment, FAS): 0
- SAQ 3rd question: ≧3 times per week, % of cases (6 months after treatment, FAS): (37.33%)
- SAQ 3rd question: ≧3 times per week, cases (6 months after treatment, FAS): 650
- SAQ 3rd question: ≧4 times per day, % of cases (6 months after treatment, FAS): (0.98%)
- SAQ 3rd question: ≧4 times per day, cases (6 months after treatment, FAS): 17
- SAQ Question 1-3: Mildly limited, number of patients (6 months after treatment, FAS): 86
- SAQ Question 1-3: Mildly limited, percent of patients (6 months after treatment, FAS): (4.93%)
- SAQ Question 1-3: Moderately limited, number of patients (6 months after treatment, FAS): 20
- SAQ Question 1-3: Moderately limited, percent of patients (6 months after treatment, FAS): (1.15%)
